We go through 20 molecules from patent US20250236629A1, “MEDIUM- OR MACRO-CYCLIC BENZYL-SUBSTITUTED HETEROCYCLE DERIVATIVES AND RELATED USES” (CENTESSA PHARMACEUTICALS (UK) LIMITED, priority 2022, published 2025).

The target of one experiment is T1, human orexin type 2 receptor (hOX2R) (Homo sapiens, UniProt O43614).
T1 construct: the Orexin receptor cDNA was inserted into pcDNA3.1(+) plasmid vector; expressed in transfected cells
T1 sequence (O43614 1-444): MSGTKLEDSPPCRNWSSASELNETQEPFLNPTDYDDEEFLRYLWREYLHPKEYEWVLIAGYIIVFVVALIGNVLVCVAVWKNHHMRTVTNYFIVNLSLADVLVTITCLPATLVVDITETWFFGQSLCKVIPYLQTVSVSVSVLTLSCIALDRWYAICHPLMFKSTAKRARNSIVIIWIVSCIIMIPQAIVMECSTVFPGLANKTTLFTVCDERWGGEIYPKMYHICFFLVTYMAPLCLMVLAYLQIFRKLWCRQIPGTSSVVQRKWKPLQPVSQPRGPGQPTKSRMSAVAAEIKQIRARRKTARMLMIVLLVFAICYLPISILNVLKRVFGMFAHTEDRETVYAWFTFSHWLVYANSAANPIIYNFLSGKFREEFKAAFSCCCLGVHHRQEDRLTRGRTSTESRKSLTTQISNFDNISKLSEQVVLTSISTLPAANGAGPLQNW
Description: Orexin type 2 receptor agonist activity, intracellular Ca2+ (FLIPR TETRA) in CHO cells. The class given is cell-based. As to conditions: CHO cells expressing hOX2R; Ca2+ fluorescence area; 100% = 10 nM human orexin A. On the procedure: Stable cell line generation. Obtainment of cells stably expressing either human orexin type 2 or human orexin type 1 receptor: to obtain a stable cell line the Orexin receptor cDNA was inserted into pcDNA3.1(+) plasmid vector and clones identified by G418 drug resistance selection. […] A single clone for OX2R—CHO and OX1R—CHO were grown in bulk and frozen to generate a cell bank for routine screening.
Measurement of orexin type 2 receptor agonist activity. Chinese hamster ovary (CHO) cells expressing human orexin type 2 receptor (hOX2R) or human orexin type 1 receptor (hOX1R) were seeded in each well of 384 well black clear bottom plates (BD Flacon) at 10,000 cells per well and cultured for 24 hr in an Ham's F12 (Gibco) medium containing 10% fetal calf serum (Sigma Aldrich) under the conditions of 37° C., 5% CO2. After removal of the medium, 50 μl of assay buffer 1 (0.1% bovine serum albumin (Sigma Aldrich), 20 mM HEPES (Molecular Dimensions), […] probenecid (Sigma Aldrich), 1× Calcium 5 dye (Molecular Devices) in Hank's balanced salt solution (Invitrogen)) was added, and the cells were incubated for 60 min under the conditions of 37° C., 5% CO2. A test compound was dissolved in dimethyl sulfoxide (Sigma Aldrich) to 10 mM, and then diluted with assay buffer 2 (20 mM HEPES, Hank's balanced salt solution, 0.1% bovine serum albumin). For the reaction, a test compound solution (10 μl) was added using Fluorescent Imaging Plate Reader TETRA (FLIPR TETRA: manufactured by Molecular Devices), a fluorescence value (excitation wavelength 488 nm, measurement wavelength 570 nm) of each well was measured every one second for 2 min, and the agonist activity was determined using the area of the fluorescence value as an indicator of intracellular Ca^2+ concentration. The agonist activity of the test compound was calculated assuming that the fluorescence value of the well added with only the dilution buffer was 0% and the fluorescence value of the well added with 10 nM human orexin A (Tocris) buffer was 100%.
Values of hOx2 pEC50 in Table B are presented in ranges, in which 6.0≤“+”<7.0, 7.0≤“++”<8.0, 8.0≤“+++”<9.0, and 9.0≤“++++”<10.4.
For the molecule “N-((2′S,3′S)-3′-fluoro-6′-methyl-5′-oxospiro[cyclopropane-1,4′-9-oxa-6-aza-4(2,1)-pyrrolidina-1(1,2),2(1,3)-dibenzenacyclononaphan]-3′-yl)ethanesulfonamide [Example 19]”, the “hOx2 pEC50” value was “+++ (8.0≤“+++”<9.0)”.

The experiment is the same for the next values; noted with them: CHO cells expressing hOX2R; Ca2+ fluorescence area; 100% = 10 nM human orexin A; read-out: hOx2 pEC50 (converted).
As to `CC(C)S(=O)(=O)N[C@H]1[C@@H](F)CN2C(=O)N(C)CCOc3ccccc3-c3cccc(c3F)C[C@@H]12` [Example 35, N-((4^2S,4^3R,4^4S)-2^2,4^4-difluoro-6-methyl-5-oxo-9-oxa-6-aza-4(2,1)-pyrrolidina-1(1,2),2(1,3)-dibenzenacyclononaphane-4^3-yl)propane-2-sulfonamide], the EC50 is 1 to 10 nM. The same measure, in the same setting: next, `C[C@H]1CN2C(=O)N(C)CCOc3ccccc3-c3cccc(c3F)C[C@H]2[C@H]1NS(=O)(=O)CF` [Example 2, 1-fluoro-N-((4^2S,4^3S,4^4S)-2^2-fluoro-4^4,6-dimethyl-5-oxo-9-oxa-6-aza-4(2,1)-pyrrolidina-1(1,2),2(1,3)-dibenzenacyclononaphane-4^3-yl)methanesulfonamide]: 10 to 100 nM; `O=C1CCOc2c(F)cc(F)cc2-c2cccc(c2)C[C@H]2[C@@H](NS(=O)(=O)C(F)F)CCCN12` [Example 14, N-((4^2S,4^3S)-1^3,1^5-difluoro-5-oxo-8-oxa-4(2,1)-piperidina-1(1,2),2(1,3)-dibenzenacyclooctaphane-4^3-yl)-1,1-difluoromethanesulfonamide]: 1 to 10 nM. As to `O=C1CCOc2ccccc2-c2cccc(c2)C[C@H]2[C@@H](NS(=O)(=O)C3(F)CC3)CCCN12` [Example 50, 1-fluoro-N-((4^2S,4^3S)-5-oxo-8-oxa-4 (2,1)-piperidina-1 (1,2),2 (1,3)-dibenzenacyclooctaphane-4^3-yl)cyclopropane-1-sulfonamide], the EC50 is 0.0398 to 1 nM.

With `CN1CCOc2c(F)cccc2-c2cccc(c2)C[C@H]2[C@@H](NS(=O)(=O)CF)C(F)(F)CN2C1=O` [Example 7, 1-fluoro-N-((4^2S,4^3R)-1^3,4^4,4^4-trifluoro-6-methyl-5-oxo-9-oxa-6-aza-4(2,1)-pyrrolidina-1(1,2),2(1,3)-dibenzenacyclononaphane-4^3-yl)methanesulfonamide], the EC50 is 1 to 10 nM. On the same count and under the same terms, to `CN1CCOc2c(F)cccc2-c2cccc(c2)C[C@H]2[C@@H](NS(=O)(=O)CF)C3(CC3)CN2C1=O` [Example 30, 1-fluoro-N-((2′S,3′S)-3′-fluoro-6′-methyl-5′-oxospiro[cyclopropane-1,4′-9-oxa-6-aza-4(2,1)-pyrrolidina-1(1,2),2(1,3)-dibenzenacyclononaphan]-3′-yl)methanesulfonamide] belongs 10 to 100 nM; to `C[C@@H](F)S(=O)(=O)N[C@H]1CCCN2C(=O)CCOc3ccccc3-c3cccc(c3)C[C@@H]12` [Example 28, (S)-1-fluoro-N-((4^2S,4^3S)-5-oxo-8-oxa-4(2,1)-piperidina-1(1,2),2(1,3)-dibenzenacyclooctaphane-4^3-yl)ethane-1-sulfonamide], 0.0398 to 1 nM. Still for that read-out and setting: next, `CCS(=O)(=O)N[C@H]1[C@@H](F)CN2C(=O)N(C)CCOc3ccccc3-c3cccc(c3F)C[C@@H]12` [Example 17, N-((4^2S,4^3R,4^4S)-2^2,4^4-difluoro-6-methyl-5-oxo-9-oxa-6-aza-4(2,1)-pyrrolidina-1(1,2),2(1,3)-dibenzenacyclononaphane-4^3-yl)ethanesulfonamide]: 1 to 10 nM. Same read-out and setting: next, `CN1CCOc2c(F)cccc2-c2cccc(c2F)C[C@H]2[C@@H](NS(=O)(=O)CF)C3(CC3)CN2C1=O` [Example 8, N-((2′S,3′S)-2′,3′-difluoro-6′-methyl-5′-oxospiro[cyclopropane-1,4′-9-oxa-6-aza-4(2,1)-pyrrolidina-1(1,2),2(1,3)-dibenzenacyclononaphan]-3′-yl)-1-fluoromethanesulfonamide]: 0.0398 to 1 nM; `CCS(=O)(=O)N[C@H]1[C@@H](F)CN2C(=O)N(C)CCOc3c(F)cccc3-c3cccc(c3F)C[C@@H]12` [Example 18, N-((4^2S,4^3R,4^4S)-1^3,2^2,4^4-trifluoro-6-methyl-5-oxo-9-oxa-6-aza-4(2,1)-pyrrolidina-1(1,2),2(1,3)-dibenzenacyclononaphane-4^3-yl)ethanesulfonamide]: 1 to 10 nM; `CN1CCOc2ccccc2-c2cccc(c2F)C[C@H]2[C@@H](NS(=O)(=O)CF)CCCN2C1=O` [Example 32, 1-fluoro-N-((4^2S,4^3S)-2^2-fluoro-6-methyl-5-oxo-9-oxa-6-aza-4(2,1)-piperidina-1(1,2),2(1,3)-dibenzenacyclononaphane-4^3-yl)methanesulfonamide]: 10 to 100 nM.

Turning to `O=C1CCOc2c(F)cccc2-c2cccc(c2)C[C@H]2[C@@H](NS(=O)(=O)C(F)F)CCCN12` [Example 24, 1,1-difluoro-N-((4^2S,4^3S)-1^3-fluoro-5-oxo-8-oxa-4(2,1)-piperidina-1(1,2),2(1,3)-dibenzenacyclooctaphane-4^3-yl)methanesulfonamide], the EC50 was 1 to 10 nM. On the same count and under the same terms, next, `CN1CCOc2c(F)cc(F)cc2-c2cccc(c2F)C[C@H]2[C@@H](NS(=O)(=O)C(F)F)C3(CC3)CN2C1=O` [Example 39, 1,1-difluoro-N-((2′S,3′S)-2′,3′,5′-trifluoro-6′-methyl-5′-oxospiro[cyclopropane-1,4′-9-oxa-6-aza-4(2,1)-pyrrolidina-1(1,2),2(1,3)-dibenzenacyclononaphan]-3′-yl)methanesulfonamide]: 1 to 10 nM; `O=C1CCOc2c(F)cccc2-c2cccc(c2)C[C@H]2[C@@H](NS(=O)(=O)C3(F)CC3)[C@@H](F)CCN12` [Example 46, N-((4^2S,4^3R,4^4S)-1^3,4^4-difluoro-5-oxo-8-oxa-4 (2,1)-piperidina-1 (1,2),2 (1,3)-dibenzenacyclooctaphane-4^3-yl)-1-fluorocyclopropane-1-sulfonamide]: 0.0398 to 1 nM; `CN1CCOc2c(F)cc(F)cc2-c2cccc(c2F)C[C@H]2[C@@H](NS(=O)(=O)CF)C3(CC3)CN2C1=O` [Example 40, 1-fluoro-N-((2′S,3′S)-2′,3′,5′-trifluoro-6′-methyl-5′-oxospiro[cyclopropane-1,4′-9-oxa-6-aza-4(2,1)-pyrrolidina-1(1,2),2(1,3)-dibenzenacyclononaphan]-3′-yl)methanesulfonamide]: 1 to 10 nM. Consider `CCS(=O)(=O)N[C@H]1[C@@H](F)CN2C(=O)CCOc3ccccc3-c3cccc(c3F)C[C@@H]12` [Example 29, N-((4^2S,4^3R,4^4S)-2^2,4^4-difluoro-5-oxo-8-oxa-4(2,1)-pyrrolidina-1(1,2),2(1,3)-dibenzenacyclooctaphane-4^3-yl)ethanesulfonamide], for which the EC50 was 1 to 10 nM. With `CCS(=O)(=O)N[C@H]1CCCN2C(=O)CCOc3ccccc3-c3cccc(c3F)C[C@@H]12` [Example 27, N-((4^2S,4^3S)-22-fluoro-5-oxo-8-oxa-4(2,1)-piperidina-1(1,2),2(1,3)-dibenzenacyclooctaphane-4^3-yl)ethanesulfonamide], the EC50 is 1 to 10 nM. The same measure, in the same setting: to `CN1CCOc2c(F)cc(F)cc2-c2cccc(c2)C[C@H]2[C@@H](NS(=O)(=O)C(F)F)C3(CC3)CN2C1=O` [Example 31, N-((2′S,3′S)-3′,5′-difluoro-6′-methyl-5′-oxospiro[cyclopropane-1,4′-9-oxa-6-aza-4(2,1)-pyrrolidina-1(1,2),2(1,3)-dibenzenacyclononaphan]-3′-yl)-1,1-difluoromethanesulfonamide] belongs 10 to 100 nM; to `CC(C)(F)S(=O)(=O)N[C@H]1CCCN2C(=O)CCOc3ccccc3-c3cccc(c3F)C[C@@H]12` [Example 33, 2-fluoro-N-((4^2S,4^3S)-2^2-fluoro-5-oxo-8-oxa-4(2,1)-piperidina-1(1,2),2(1,3)-dibenzenacyclooctaphane-4^3-yl)propane-2-sulfonamide], 1 to 10 nM.
